Where a name gives a salt, the structure may show the parent alone.
These compounds were tested against Human Thrombin (Homo sapiens, UniProt P00734) (assay: biochemical). Settings: read-out: Kass Human Thrombin (converted).

Compound | Kd [µM]
N=C(N)c1ccc(CNC(=O)[C@@H]2CCCN2C(=O)[C@@H](CCC2CCCCC2)NCC(=O)O)cc1 [Example 88, HOOCCH2-D-hCha-Pro-p-NHCH2C6H4C(NH)NH2·HCl] | 0.00244
CCC(CC)C(=O)N[C@@H](CCC(=O)O)C(=O)N1CCC[C@H]1C(=O)NCc1ccc(C(=N)N)cc1 [Example 90, (C2H5)2CHCO-Glu-Pro-p-NHCH2C6H4C(NH)NH2·HCl] | 1.64
N=C(N)Nc1ccc(CCNC(=O)[C@@H]2CCCN2C(=O)[C@@H]2NCC[C@@H]3CCCC[C@@H]32)cc1 [Example 39, D-1-Piq-Pro-p-NHCH2CH2C6H4NHC(NH)NH2·2HCl] | 8.33
N=C(N)c1ccc(CNC(=O)[C@@H]2CCCN2C(=O)[C@@H](CC2CCCCC2)NCCCC(=O)O)cc1 [Example 85, HOOCCH2CH2CH2-D-Cha-Pro-p-NHCH2C6H4C(NH)NH2·HCl] | 0.00377
N=C(N)c1ccc(CNC(=O)[C@@H]2CCCN2C(=O)[C@H](NCC(=O)O)C2CCCCC2)cc1 [Example 86, HOOCCH2-D-Chg-Pro-p-NHCH2C6H4C(NH)NH2·HCl] | 0.005
CS(=O)(=O)CC(=O)N[C@H](CC1CCCCC1)C(=O)N1CCC[C@H]1C(=O)NCc1ccc(C(=N)N)cc1 [Example 92, MeSO2CH2CO-D-Cha-Pro-p-NHCH2C6H4C(NH)NH2·HCl] | 0.00769

The compounds below were run against factor Xa (Homo sapiens, UniProt P00742) (assay: biochemical). Settings: read-out: Kass Xa (converted).
Sequence of factor Xa (P00742 235-488 limits assumed): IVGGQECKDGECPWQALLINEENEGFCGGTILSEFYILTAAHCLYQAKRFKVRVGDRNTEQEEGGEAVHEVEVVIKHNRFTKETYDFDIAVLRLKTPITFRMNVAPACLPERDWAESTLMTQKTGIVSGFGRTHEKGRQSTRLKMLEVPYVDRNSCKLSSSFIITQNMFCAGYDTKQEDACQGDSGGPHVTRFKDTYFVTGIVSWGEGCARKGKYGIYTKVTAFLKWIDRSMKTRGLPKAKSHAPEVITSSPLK
Sequence of factor Xa (P00742 41-179 partner limits assumed): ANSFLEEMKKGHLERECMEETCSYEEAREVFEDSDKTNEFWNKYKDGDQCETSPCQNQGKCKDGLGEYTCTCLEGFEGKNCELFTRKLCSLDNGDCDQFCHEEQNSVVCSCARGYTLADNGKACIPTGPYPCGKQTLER
Procedure: (§1) By substantially following the procedures described above for human thrombin, and using other human blood coagulation system serine proteases and proteases of the fibrinolytic system with the appropriate chromogenic substrates, identified below, selectivity of the compounds of the present invention with respect to the coagulation factor serine proteases and with respect to the fibrinolytic system serine proteases are evaluated as well as their substantial lack of interference with serine proteases of the fibrinolytic system. Thrombin inhibitors preferably should spare fibrinolysis induced by urokinase, tissue plasminogen activator (t-PA) and streptokinase. This would be important to the therapeutic use of such agents as an adjunct to streptokinase, t-PA or urokinase thrombolytic therapy and to the use of such agents as an endogenous fibrinolysis-sparing (with respect to t-PA and urokinase) antithrombotic agent. In addition to the lack of interference with the amidase activity of the fibrinolytic proteases, such fibrinolytic system sparing can be studied by the use of human plasma clots and their lysis by the respective fibrinolytic plasminogen activators.
(§2) Human factors X, Xa, IXa, XIa, and XIIa are purchased from Enzyme Research Laboratories, South Bend, Indiana; human urokinase from Leo Pharmaceuticals, Denmark; and recombinant activated Protein C (aPC) is prepared at Eli Lilly and Co. substantially according to U.S. Patent 4,981,952. Chromogenic substrates: N-Benzoyl-Ile-Glu-Gly-Arg-p-nitroanilide (for factor Xa); N-Cbz-D-Arg-Gly-Arg-p-nitroanilide (for factor IXa assay as the factor Xa substrate); Pyroglutamyl-Pro-Arg-p-nitroanilide (for Factor XIa and for aPC); H-D-Pro-Phe-Arg-p-nitroanilide (for factor XIIa); and Pyroglutamyl-Gly-Arg-p-nitroanilide (for urokinase); are purchased from KabiVitrum, Stockholm, Sweden, or from Midwest Biotech, Fishers, Indiana. Bovine trypsin is purchased from Worthington Biochemicals, Freehold, New Jersey, and human plasma kallikrein from Kabi Vitrum, Stockholm, Sweden. Chromogenic substrate H-D-Pro-Phe-Arg-p-nitroanilide for plasma kallikrein is purchased from Kabi Vitrum, Stockholm, Sweden. N-Benzoyl-Phe-Val-Arg-p-nitroanilide, the substrate for human thrombin and for trypsin, is synthesized according to procedures described above for the compounds of the present invention, using known methods of peptide coupling from commercially available reactants or purchased from Midwest Biotech, Fishers, Indiana.

Compound | Kd [µM]
N=C(N)c1ccc(CNC(=O)[C@@H]2CCCN2C(=O)[C@@H](CCC2CCCCC2)NCC(=O)O)cc1 [Example 88, HOOCCH2-D-hCha-Pro-p-NHCH2C6H4C(NH)NH2·HCl] | 0.256
CCC(CC)C(=O)N[C@@H](CCC(=O)O)C(=O)N1CCC[C@H]1C(=O)NCc1ccc(C(=N)N)cc1 [Example 90, (C2H5)2CHCO-Glu-Pro-p-NHCH2C6H4C(NH)NH2·HCl] | 500
N=C(N)Nc1ccc(CCNC(=O)[C@@H]2CCCN2C(=O)[C@@H]2NCC[C@@H]3CCCC[C@@H]32)cc1 [Example 39, D-1-Piq-Pro-p-NHCH2CH2C6H4NHC(NH)NH2·2HCl] | > 1000
N=C(N)c1ccc(CNC(=O)[C@@H]2CCCN2C(=O)[C@H](NCC(=O)O)C2CCCCC2)cc1 [Example 86, HOOCCH2-D-Chg-Pro-p-NHCH2C6H4C(NH)NH2·HCl] | 1.59

These compounds were tested against T1, Trypsin (Bos taurus, UniProt P00760) (assay: biochemical). Settings: read-out: Kass Trypsin (converted).
T1 sequence (P00760 24-246): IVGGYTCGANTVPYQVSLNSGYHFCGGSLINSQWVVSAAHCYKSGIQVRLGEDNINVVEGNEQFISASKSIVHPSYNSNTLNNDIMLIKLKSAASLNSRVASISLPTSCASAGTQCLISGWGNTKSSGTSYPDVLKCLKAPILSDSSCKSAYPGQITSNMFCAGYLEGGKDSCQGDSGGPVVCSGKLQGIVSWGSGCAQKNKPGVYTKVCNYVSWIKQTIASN
Design: species or system Bovine
Procedure: as §1, §2

Compound | Kd [µM]
N=C(N)Nc1ccc(CCNC(=O)[C@@H]2CCCN2C(=O)[C@@H]2NCC[C@@H]3CCCC[C@@H]32)cc1 [Example 39, D-1-Piq-Pro-p-NHCH2CH2C6H4NHC(NH)NH2·2HCl] | > 50
N=C(N)c1ccc(CNC(=O)[C@@H]2CCCN2C(=O)[C@@H](CC2CCCCC2)NCCCC(=O)O)cc1 [Example 85, HOOCCH2CH2CH2-D-Cha-Pro-p-NHCH2C6H4C(NH)NH2·HCl] | 0.0325
CS(=O)(=O)CC(=O)N[C@H](CC1CCCCC1)C(=O)N1CCC[C@H]1C(=O)NCc1ccc(C(=N)N)cc1 [Example 92, MeSO2CH2CO-D-Cha-Pro-p-NHCH2C6H4C(NH)NH2·HCl] | 0.13

What follows are compounds tested against T2, Plasmin (Homo sapiens, UniProt P00747) (assay: biochemical). Settings: read-out: Kass Plasmin (converted).
T2 construct: Human plasmin is purchased; purchased Boehringer Mannheim, Indianapolis, Indiana
T2 sequence (P00747 581-810 limits assumed): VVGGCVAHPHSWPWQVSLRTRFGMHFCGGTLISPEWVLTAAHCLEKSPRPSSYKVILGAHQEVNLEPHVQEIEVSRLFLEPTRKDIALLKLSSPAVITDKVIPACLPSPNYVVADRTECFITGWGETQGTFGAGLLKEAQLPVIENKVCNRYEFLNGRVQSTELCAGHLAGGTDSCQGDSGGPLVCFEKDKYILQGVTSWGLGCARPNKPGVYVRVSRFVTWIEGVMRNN
T2 sequence (P00747 97-580 partner limits assumed): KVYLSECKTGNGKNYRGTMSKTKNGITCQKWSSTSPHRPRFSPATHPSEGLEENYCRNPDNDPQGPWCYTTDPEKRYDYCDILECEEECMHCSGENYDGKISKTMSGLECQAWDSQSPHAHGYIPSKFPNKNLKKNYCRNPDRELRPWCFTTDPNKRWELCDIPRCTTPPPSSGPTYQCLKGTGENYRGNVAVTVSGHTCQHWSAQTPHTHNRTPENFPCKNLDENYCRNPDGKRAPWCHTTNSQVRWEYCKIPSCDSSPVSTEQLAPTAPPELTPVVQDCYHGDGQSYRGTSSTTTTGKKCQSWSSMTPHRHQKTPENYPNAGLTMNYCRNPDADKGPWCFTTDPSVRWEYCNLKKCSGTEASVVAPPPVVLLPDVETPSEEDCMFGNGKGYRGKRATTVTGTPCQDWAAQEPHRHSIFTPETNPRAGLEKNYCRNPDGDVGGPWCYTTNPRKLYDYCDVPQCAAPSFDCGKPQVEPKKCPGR
Procedure: as §1
Human plasmin is purchased from Boehringer Mannheim, Indianapolis, Indiana; nt-PA is purchased as single chain activity reference from American Diagnostica, Greenwich, Connecticut; modified-t-PA6 (mt-PA6) is prepared at Eli Lilly and Company by procedure known in the art (See, Burck, et al., J. Biol. Chem., 265, […] (1990). Plasmin chromogenic substrate H-D-Val-Leu-Lys-p-nitroanilide and tissue plasminogen activator (t-PA) substrate H-D-Ile-Pro-Arg-p-nitroanilide are purchased from Kabi Vitrum, Stockholm, Sweden.

Compound | Kd [µM]
N=C(N)Nc1ccc(CCNC(=O)[C@@H]2CCCN2C(=O)[C@@H]2NCC[C@@H]3CCCC[C@@H]32)cc1 [Example 39, D-1-Piq-Pro-p-NHCH2CH2C6H4NHC(NH)NH2·2HCl] | > 1000

These compounds were tested on human or animal plasma (assay: Anticoagulation determination in plasma: thrombin time (TT)). Settings: concentration doubling thrombin time.
Format: biochemical
Procedure: (§3) Dog plasma and rat plasma is obtained from conscious mixed-breed hounds (either sex, Hazelton-LRE, Kalamazoo, Michigan, U.S.A.) or from anesthetized male Sprague-Dawley rats (Harlan Sprague-Dawley, Inc., Indianapolis, Indiana, U.S.A.) by venipuncture into 3.8 percent citrate. Fibrinogen is prepared from in-date ACD human blood as the fraction I-2 according to previous procedures and specifications. Smith, Biochem. J., 185, 1-11 (1980); and Smith, et al., Biochemistry, 11, 2958-2967 (1972). Human fibrinogen is also purchased as 98 percent pure/plasmin free from American Diagnostica, Greenwich, Connecticut. Coagulation reagents ACTIN, Thromboplastin, and Human plasma are from Baxter Healthcare Corp., Dade Division, Miami, Florida. Bovine thrombin from Parke-Davis (Ann Detroit, Michigan) is used for coagulation assays in plasma.
(§4) Coagulation assay procedures are as previously described. Smith, et al., Thrombosis Research, 50, 163-174 (1988). A CoAScreener coagulation instrument (American LABor, Inc.) is used for all coagulation assay measurements. The prothrombin time (PT) is measured by adding 0.05 mL saline and 0.05 mL Thromboplastin-C reagent to 0.05 mL test plasma. The activated partial thromboplastin time (APTT) is measured by incubation of 0.05 mL test plasma with 0.05 mL Actin reagent for 120 seconds followed by 0.05 mL CaCl2 (0.02 M). The thrombin time (TT) is measured by adding 0.05 mL saline and 0.05 mL thrombin (10 NIH units/mL) to 0.05 mL test plasma. The compounds of Formula I are added to human or animal plasma over a wide range of concentrations to determine prolongation effects on the APTT, PT, and TT assays. Linear extrapolations are performed to estimate the concentrations required to double the clotting time for each assay.

Compound | Human Plasma Anticoagulation 2x Clotting time (ng/mL) TT
N=C(N)c1ccc(CNC(=O)[C@@H]2CCCN2C(=O)[C@@H](CCC2CCCCC2)NCC(=O)O)cc1 [Example 88, HOOCCH2-D-hCha-Pro-p-NHCH2C6H4C(NH)NH2·HCl] | 4 ng/mL
CCC(CC)C(=O)N[C@@H](CCC(=O)O)C(=O)N1CCC[C@H]1C(=O)NCc1ccc(C(=N)N)cc1 [Example 90, (C2H5)2CHCO-Glu-Pro-p-NHCH2C6H4C(NH)NH2·HCl] | 330 ng/mL
N=C(N)Nc1ccc(CCNC(=O)[C@@H]2CCCN2C(=O)[C@@H]2NCC[C@@H]3CCCC[C@@H]32)cc1 [Example 39, D-1-Piq-Pro-p-NHCH2CH2C6H4NHC(NH)NH2·2HCl] | 5,300 ng/mL
N=C(N)c1ccc(CNC(=O)[C@@H]2CCCN2C(=O)[C@@H](CC2CCCCC2)NCCCC(=O)O)cc1 [Example 85, HOOCCH2CH2CH2-D-Cha-Pro-p-NHCH2C6H4C(NH)NH2·HCl] | 4.9 ng/mL
N=C(N)c1ccc(CNC(=O)[C@@H]2CCCN2C(=O)[C@H](NCC(=O)O)C2CCCCC2)cc1 [Example 86, HOOCCH2-D-Chg-Pro-p-NHCH2C6H4C(NH)NH2·HCl] | 4 ng/mL
CS(=O)(=O)CC(=O)N[C@H](CC1CCCCC1)C(=O)N1CCC[C@H]1C(=O)NCc1ccc(C(=N)N)cc1 [Example 92, MeSO2CH2CO-D-Cha-Pro-p-NHCH2C6H4C(NH)NH2·HCl] | 8.9 ng/mL

The compounds below were run on human or animal plasma (assay: Anticoagulation determination in plasma: activated partial thromboplastin time (APTT)). Settings: concentration doubling activated partial thromboplastin time.
Format: biochemical
Procedure: as §3, §4

Compound | Human Plasma Anticoagulation 2x Clotting time (ng/mL) APTT
N=C(N)c1ccc(CNC(=O)[C@@H]2CCCN2C(=O)[C@@H](CCC2CCCCC2)NCC(=O)O)cc1 [Example 88, HOOCCH2-D-hCha-Pro-p-NHCH2C6H4C(NH)NH2·HCl] | 100 ng/mL
CCC(CC)C(=O)N[C@@H](CCC(=O)O)C(=O)N1CCC[C@H]1C(=O)NCc1ccc(C(=N)N)cc1 [Example 90, (C2H5)2CHCO-Glu-Pro-p-NHCH2C6H4C(NH)NH2·HCl] | 14,500 ng/mL
N=C(N)Nc1ccc(CCNC(=O)[C@@H]2CCCN2C(=O)[C@@H]2NCC[C@@H]3CCCC[C@@H]32)cc1 [Example 39, D-1-Piq-Pro-p-NHCH2CH2C6H4NHC(NH)NH2·2HCl] | 69,200 ng/mL
N=C(N)c1ccc(CNC(=O)[C@@H]2CCCN2C(=O)[C@@H](CC2CCCCC2)NCCCC(=O)O)cc1 [Example 85, HOOCCH2CH2CH2-D-Cha-Pro-p-NHCH2C6H4C(NH)NH2·HCl] | 100 ng/mL
N=C(N)c1ccc(CNC(=O)[C@@H]2CCCN2C(=O)[C@H](NCC(=O)O)C2CCCCC2)cc1 [Example 86, HOOCCH2-D-Chg-Pro-p-NHCH2C6H4C(NH)NH2·HCl] | 81 ng/mL
CS(=O)(=O)CC(=O)N[C@H](CC1CCCCC1)C(=O)N1CCC[C@H]1C(=O)NCc1ccc(C(=N)N)cc1 [Example 92, MeSO2CH2CO-D-Cha-Pro-p-NHCH2C6H4C(NH)NH2·HCl] | 210 ng/mL

What follows are compounds tested on human or animal plasma (assay: Anticoagulation determination in plasma: prothrombin time (PT)). Settings: concentration doubling prothrombin time.
Format: biochemical
Procedure: as §3, §4

Compound | Human Plasma Anticoagulation 2x Clotting time (ng/mL) PT
N=C(N)c1ccc(CNC(=O)[C@@H]2CCCN2C(=O)[C@@H](CCC2CCCCC2)NCC(=O)O)cc1 [Example 88, HOOCCH2-D-hCha-Pro-p-NHCH2C6H4C(NH)NH2·HCl] | 200 ng/mL
CCC(CC)C(=O)N[C@@H](CCC(=O)O)C(=O)N1CCC[C@H]1C(=O)NCc1ccc(C(=N)N)cc1 [Example 90, (C2H5)2CHCO-Glu-Pro-p-NHCH2C6H4C(NH)NH2·HCl] | 14,600 ng/mL
N=C(N)Nc1ccc(CCNC(=O)[C@@H]2CCCN2C(=O)[C@@H]2NCC[C@@H]3CCCC[C@@H]32)cc1 [Example 39, D-1-Piq-Pro-p-NHCH2CH2C6H4NHC(NH)NH2·2HCl] | 78,600 ng/mL
N=C(N)c1ccc(CNC(=O)[C@@H]2CCCN2C(=O)[C@@H](CC2CCCCC2)NCCCC(=O)O)cc1 [Example 85, HOOCCH2CH2CH2-D-Cha-Pro-p-NHCH2C6H4C(NH)NH2·HCl] | 197 ng/mL
N=C(N)c1ccc(CNC(=O)[C@@H]2CCCN2C(=O)[C@H](NCC(=O)O)C2CCCCC2)cc1 [Example 86, HOOCCH2-D-Chg-Pro-p-NHCH2C6H4C(NH)NH2·HCl] | 180 ng/mL
CS(=O)(=O)CC(=O)N[C@H](CC1CCCCC1)C(=O)N1CCC[C@H]1C(=O)NCc1ccc(C(=N)N)cc1 [Example 92, MeSO2CH2CO-D-Cha-Pro-p-NHCH2C6H4C(NH)NH2·HCl] | 340 ng/mL
